Measurements as given in patent US8309580B2, “Heterocyclic compound” (Takeda Pharmaceutical Company Limited, priority 2007, dated 2012).

What follows are molecules tested on glucagon-induced blood glucose increase (assay: Test of glucagon-induced blood glucose increase-suppressive action in mouse). Details: male ICR mouse, fasted; test compound 10 mg/kg orally 60 min before s.c. glucagon 10 μg/kg with octreotide; blood glucose 30 min after glucagon.
Type: in vivo
Protocol: Test of Glucagon-Induced Blood Glucose Increase-Suppressive Action in Mouse
Full feeding ICR mouse (male, 7-week-old) was fasted, and 0.5% methylcellulose suspension (compound-administration group, 8 mice per group) containing a test compound (10 mg/kg body weight) or 0.5% methylcellulose suspension (compound-non-administration group, 8 mice per group) was orally administered. After 60 minutes, glucagon (10 μg/kg body weight, Novo Nordisk Pharma Ltd.) containing octreotide (100 μg/kg body weight, Novo Nordisk Pharma Ltd.) was subcutaneously administered. After 30 minutes from the glucagon administration, blood samples were collected from the tail vein of the mouse, and the blood glucose level was measured by a glucose self-test kit ACCU-CHEK (Roche Diagnostics K.K.). As a non-treatment group (8 mice per group), the blood glucose level of mouse of the compound-non-administration group, which was free of glucagon administration, was measured in the same manner as in the above.
The differences between the average blood glucose level of the compound-non-administration group, the average blood glucose level of the compound administration group, and the average blood glucose level of the non-treatment group were each calculated, and the percentage of the “difference between the blood glucose level of the compound administration group and that of the non-treatment group” relative to the “difference between the blood glucose level of the compound-non-administration group and that of the non-treatment group” as 100% was determined as an “increasing rate of blood glucose (% of control)”.

Structure (SMILES) | increasing rate of blood glucose (% of control)
CCc1oc(-c2ccc(C(F)(F)F)cc2)cc1C(Nc1ccc(C(=O)N(C)CCC(=O)O)cc1)C1CCCCC1 (centres unmarked) [Ex. 87, 3-[({4-[(cyclohexyl{2-ethyl-5-[4-(trifluoromethyl)phenyl]furan-3-yl}methyl)amino]phenyl}carbonyl)(methyl)amino]propanoic acid] | 6.5 % of control
COCc1oc(-c2ccc(OC)nc2)cc1C(Nc1ccc(C(=O)N(C)CCC(=O)O)cc1)C1CCCCC1 (centres unmarked) [Example 147, 3-[{[4-({cyclohexyl[2-(methoxymethyl)-5-(6-methoxypyridin-3-yl)furan-3-yl]methyl}amino)phenyl]carbonyl}(methyl)amino]propanoic acid] | 8.6 % of control
COc1ccc(-c2cc(C(CC(C)C)Nc3ccc(C(=O)N(C)CCC(=O)O)cc3)c(C)o2)cn1 (centres unmarked) [Example 149, 3-[{[4-({1-[5-(6-methoxypyridin-3-yl)-2-methylfuran-3-yl]-3-methylbutyl}amino)phenyl]carbonyl}(methyl)amino]propanoic acid] | 6.8 % of control

The molecules below were run against human-type glucagon receptor (Homo sapiens, UniProt P47871) (assay: Glucagon binding inhibitory activity ([125I]-glucagon binding to glucagon receptor membrane protein)). Details: glucagon receptor membrane protein from FreeStyle CHO cells, 90 min at room temperature.
Protocol: The glucagon binding inhibitory action of the compound of the present invention was evaluated by the following method.
(1) Preparation of Glucagon Receptor Membrane Protein
A human-type glucagon receptor was expressed using FreeStyle CHO Expression System (Invitrogen). A transient expression in FreeStyle CHO cell was performed using a human-type glucagon expression plasmid DNA and according to the manual attached to the FreeStyle CHO Expression System. The above-mentioned DNA was transfected and the cultured with shaking for 2 days (37° C., 8% CO2, 125 rpm). 2400 ml of culture medium was centrifuged at 2,000 rpm for 10 min and the cells were collected. The collected cells were washed with PBS, suspended in homogenate buffer [10 mM NaHCO3 (pH 7.4), 1 mM EDTA, Complete EDTA-free (Roche, 1 tablet/50 mL)] and disrupted by polytron cell disrupter (Kinematica AG). Disruption solution was centrifuged at 2,000 rpm for 10 min and the supernatant was collected. The supernatant was centrifuged at 35,000 rpm for 60 min and the precipitate was suspended in a buffer [20 mM Tris-HCl (pH 7.4), 5 mM EDTA, Complete EDTA-free (Roche, 1 tablet/50 mL)] to give a glucagon receptor membrane protein (452 mg).
(2) Measurement of Glucagon Binding Inhibitory Activity
To each well of 96 well plate (Corning Incorporated) were added 25 μl of test compound (containing 0.4% DMSO), 50 μl of glucagon receptor membrane protein diluted with reaction buffer [50 mM Tris-HCl (pH 7.4), 5 mM EGTA, 5 mM magnesium chloride, 0.1% BSA, 0.005% Tween20] to 100 μg/ml, and 25 μl of radioactive labeled glucagon ([^125I]-Receptor Grade Glucagon; Perkin Elmer Inc.) diluted with the reaction buffer to 200 pM, whereby the reaction was started. The plate was stood for 90 min at room temperature. The reaction solution was transferred from the reaction plate to a 96 well unifilter GF/C plate (Perkin Elmer Inc.) using a cell harvester (Perkin Elmer Inc.) and the membrane fraction was collected on the filter by suction. The filter was presoaked in 2 mg/ml of polyethyleneimine to prevent non-specific adsorption of labeled ligand. The filter was washed 4 times with a reaction buffer and dried for 2 hr at 42° C. To each well was added 25 μl of scintillator (MicroScint0; Perkin Elmer Inc.), and the fluorescence amount was measured using a microplate scintillation counter (TopCount NXT™; Perkin Elmer Inc.). The glucagon binding inhibitory activity (IC50 value) of the well added with the test compound (containing 0.4% DMSO) was calculated, using the reaction rate of the well added only with 0.4% DMSO as 0% inhibitory rate, and the reaction rate of the well added with non-labeled glucagon (final concentration 1 μM) as 100% inhibitory rate.

human-type glucagon receptor, sequence (P47871 26-477): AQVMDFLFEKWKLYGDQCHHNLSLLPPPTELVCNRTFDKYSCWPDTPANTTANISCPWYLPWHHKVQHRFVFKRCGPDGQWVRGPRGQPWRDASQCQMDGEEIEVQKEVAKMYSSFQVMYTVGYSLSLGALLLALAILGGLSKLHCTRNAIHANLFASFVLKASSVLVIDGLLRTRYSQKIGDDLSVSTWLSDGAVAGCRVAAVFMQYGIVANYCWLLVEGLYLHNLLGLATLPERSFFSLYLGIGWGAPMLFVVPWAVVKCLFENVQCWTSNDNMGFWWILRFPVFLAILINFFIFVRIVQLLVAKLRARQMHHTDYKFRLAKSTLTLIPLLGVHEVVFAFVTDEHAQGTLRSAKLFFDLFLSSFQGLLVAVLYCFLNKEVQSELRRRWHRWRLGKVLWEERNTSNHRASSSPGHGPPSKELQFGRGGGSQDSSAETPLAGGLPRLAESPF

Structure (SMILES) | IC50 [nM]
COc1ccc(-c2cc(C(Nc3ccc(C(=O)N(C)CCC(=O)O)cc3)C3CCCCC3)c(C)o2)cn1 (single isomer, unassigned) [Ex. 166, 3-[{[4-({cyclohexyl[5-(6-methoxypyridin-3-yl)-2-methylfuran-3-yl]methyl}amino)phenyl]carbonyl}(methyl)amino]propanoic acid] | 180
COc1ccc(-c2cc(C(CC(C)C)Nc3ccc(C(=O)N(C)CCC(=O)O)cc3)c(C)o2)cn1 (single isomer, unassigned) [Ex. 319, 3-[{[4-({1-[5-(6-methoxypyridin-3-yl)-2-methylfuran-3-yl]-3-methylbutyl}amino)phenyl]carbonyl}(methyl)amino]propanoic acid] | 230
CCc1oc(-c2ccc(C(F)(F)F)cc2)cc1C(CC(C)C)Oc1ccc(C(=O)NCCC(=O)O)cc1 (centres unmarked) [Ex. 5, 3-{[4-(1-{2-ethyl-5-[4-(trifluoromethyl)phenyl]-3-furyl}-3-methylbutoxy)benzoyl]amino}propanoic acid] | 630
CCc1oc(-c2ccc(C(F)(F)F)cc2)cc1C(Nc1ccc(C(=O)N(C)CCC(=O)O)cc1)C1CCCCC1 (centres unmarked) [Ex. 10, 3-[{4-[(cyclohexyl{2-ethyl-5-[4-(trifluoromethyl)phenyl]-3-furyl}methyl)amino]benzoyl}(methyl)amino]propanoic acid] | 250
Cc1oc(-c2ccc(OC(F)(F)F)cc2)cc1C(Nc1ccc(C(=O)NCCC(=O)O)cc1)C1CCCCC1 (centres unmarked) [Ex. 53, 3-({4-[(cyclohexyl{2-methyl-5-[4-(trifluoromethoxy)phenyl]-3-furyl}methyl)amino]benzoyl}amino)propanoic acid] | 110
CCc1sc(-c2ccc(C(F)(F)F)cc2)cc1C(Nc1ccc(C(=O)NCCC(=O)O)cc1)C1CCCCC1 (centres unmarked) [Ex. 71, 3-[({4-[(cyclohexyl{2-ethyl-5-[4-(trifluoromethyl)phenyl]thiophen-3-yl}methyl)amino]phenyl}carbonyl)amino]propanoic acid] | 57
CCc1sc(C2CCCCC2)cc1C(Nc1ccc(C(=O)NCCC(=O)O)cc1)C1CCCCC1 (centres unmarked) [Ex. 79, 3-{[(4-{[cyclohexyl(5-cyclohexyl-2-ethylthiophen-3-yl)methyl]amino}phenyl)carbonyl]amino}propanoic acid] | 97
CCc1sc(CC(C)C)cc1C(Nc1ccc(C(=O)NCCC(=O)O)cc1)C1CCCCC1 (centres unmarked) [Ex. 83, 3-({[4-({cyclohexyl[2-ethyl-5-(2-methylpropyl)thiophen-3-yl]methyl}amino)phenyl]carbonyl}amino)propanoic acid] | 190
Cc1sc(-c2ccccc2)cc1C(Nc1ccc(C(=O)N(C)CCC(=O)O)nc1)C1CCCCC1 (centres unmarked) [Ex. 311, 3-{[(5-{[cyclohexyl(2-methyl-5-phenylthiophen-3-yl)methyl]amino}pyridin-2-yl)carbonyl](methyl)amino}propanoic acid] | 650
COCc1oc(-c2ccc(F)cc2)cc1C(Nc1ccc(C(=O)N(C)CCC(=O)O)cc1)C1CCCCC1 (centres unmarked) [Ex. 314, 3-[{[4-({cyclohexyl[5-(4-fluorophenyl)-2-(methoxymethyl)furan-3-yl]methyl}amino)phenyl]carbonyl}(methyl)amino]propanoic acid] | 290
Cc1oc(-c2ccc(F)cc2)cc1C(Nc1ccc(C(=O)N(C)CCC(=O)O)nc1)C1CCCCC1 (centres unmarked) [Ex. 318, 3-[{[5-({cyclohexyl[5-(4-fluorophenyl)-2-methylfuran-3-yl]methyl}amino)pyridin-2-yl]carbonyl}(methyl)amino]propanoic acid] | 400
